Results as given in patent publication US9981909B2 (Janssen Pharmaceutica NV, priority 2008, dated 2018).
Counter-ions that a name gives are not always drawn.

Assays:
[1] = biological target: rat 5-HT7 receptor (Rattus norvegicus (Rat), UniProt P32305); test: r5-HT7 binding assay, competitive radioligand binding with [3H]5-CT
In short: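 Whole r5-HT7-transfected HEK-293 cells first received test compound for 10 min. They were then exposed to 100 nM 5-CT for 20 min before lysis and competitive immunoassay of cAMP. Affinity came from displacement of [3H]5-CT on membranes of the same recombinant line, expressed as Ki.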

[2] = biological target: human SERT (Homo sapiens (Human), UniProt P31645); test: human SERT binding assay with [3H]-citalopram on HEK-293 membranes; conditions: read-out: hSERT binding Ki
Sequence of human SERT (P31645 whole entry): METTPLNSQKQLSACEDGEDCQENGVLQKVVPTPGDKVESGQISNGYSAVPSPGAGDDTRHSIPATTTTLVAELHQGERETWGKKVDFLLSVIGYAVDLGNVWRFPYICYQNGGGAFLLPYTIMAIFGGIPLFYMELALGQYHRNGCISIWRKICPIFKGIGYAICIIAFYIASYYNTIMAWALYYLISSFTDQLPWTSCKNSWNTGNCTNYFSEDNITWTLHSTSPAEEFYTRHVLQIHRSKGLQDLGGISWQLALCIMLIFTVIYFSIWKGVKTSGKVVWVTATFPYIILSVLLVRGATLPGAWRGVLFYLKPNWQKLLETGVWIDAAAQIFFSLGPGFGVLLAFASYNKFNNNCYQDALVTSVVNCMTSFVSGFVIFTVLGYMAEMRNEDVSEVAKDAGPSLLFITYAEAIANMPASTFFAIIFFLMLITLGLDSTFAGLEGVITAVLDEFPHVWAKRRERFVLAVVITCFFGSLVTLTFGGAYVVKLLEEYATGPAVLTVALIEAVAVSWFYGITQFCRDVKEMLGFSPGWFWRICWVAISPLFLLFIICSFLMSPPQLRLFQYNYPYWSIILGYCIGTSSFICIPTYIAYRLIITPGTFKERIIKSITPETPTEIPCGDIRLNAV
Method: Receptor binding was performed using membrane fractions prepared from the HEK-293 cell line recombinantly expressing rat 5-HT7 receptors (NCBI accession NM_022938). Compound affinity for the rat 5-HT7 receptor subtype was evaluated by competitive radioligand binding assays using 5-carboxamido[^3H]tryptamine ([^3H]5-CT) (Amersham Biosciences, cat. 90000403) detection. HitHunter™ cAMP assays are in-vitro based competitive immunoassays. The assay was performed on the HEK-293 cell line stably transfected with r5-HT7 receptor. Cells were pre-incubated with test compounds for 10 minutes. For antagonist testing, the cells were then challenged with 100 nM 5-CT for 20 minutes. Cells were then lysed and cAMP measured according to manufacturers protocol (Amersham, cat. NET791250UC) or [^3H]mesulergine (Amersham, cat. TRK1041). The assay was performed on membranes prepared from HEK-293 cells stably transfected with h5-HT6. Following centrifugation, membranes were resuspended and incubated for 60 min at room temperature with 1.7 nM [^3H]LSD in the presence of increasing concentration of test compounds. Nonspecific binding was defined in the presence of 10 μM clozapine (Tocris, cat. TRK1068). Homogenized HEK-293 membranes expressing the human SERT were incubated in 50 mM Tris-HCl (pH 7.5), 120 mM NaCl, 5 mM KCl with [^3H]-citalopram (3 nM) with or without test compounds. Nonspecific binding was determined in the presence of 10 μM fluoxetine. Radioactivity readouts and Ki values were performed as previously described for r5-HT7. […] Compounds were assayed in their free form or as salts, as indicated in the Examples section above.

[3] = rat 5-HT7 receptor, HEK-293 membranes

Sequence of rat 5-HT7 receptor (P32305 1-435): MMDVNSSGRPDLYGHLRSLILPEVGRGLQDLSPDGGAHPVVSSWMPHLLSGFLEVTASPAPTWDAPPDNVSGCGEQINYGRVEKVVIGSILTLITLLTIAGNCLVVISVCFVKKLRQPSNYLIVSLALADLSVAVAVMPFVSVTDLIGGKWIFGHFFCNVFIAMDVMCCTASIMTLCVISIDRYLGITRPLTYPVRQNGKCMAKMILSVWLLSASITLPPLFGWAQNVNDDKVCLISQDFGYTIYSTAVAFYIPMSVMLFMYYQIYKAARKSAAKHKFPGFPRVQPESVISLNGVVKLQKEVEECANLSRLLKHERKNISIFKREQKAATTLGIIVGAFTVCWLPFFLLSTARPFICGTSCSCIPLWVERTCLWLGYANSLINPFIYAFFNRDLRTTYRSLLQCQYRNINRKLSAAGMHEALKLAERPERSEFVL

Row | SMILES | Ki [1, 3] [nM] | Ki [2] [nM] | Ki ([1]; rat 5-HT7, HEK-293 membranes) [nM]
1 | CC(Oc1ccc(Cl)cc1OC1CN(Cc2ccccc2)C1)c1cccc(C(F)(F)F)c1 (racemic) [Example 108, (±)-1-Benzyl-3-[5-chloro-2-[1-(3-trifluoromethyl-phenyl)-ethoxy]-phenoxy]-azetidine] | 36 | 5000 | –
2 | CC(Oc1ccc(Cl)cc1OC1CN(C)C1)c1cccc(C(F)(F)F)c1 (racemic) [Example 109, (±)-3-[5-Chloro-2-[1-(3-trifluoromethyl-phenyl)-ethoxy]-phenoxy]-1-methyl-azetidine] | 5 | 2900 | –
3 | CC(Oc1ccc(Br)cc1OC1CNC1)c1cccc(OC(F)(F)F)c1 (racemic) [Example 110, (±)-3-[5-Bromo-2-[1-(3-trifluoromethoxy-phenyl)-ethoxy]-phenoxy]-azetidine] | 90 | 554 | –
4 | CC(Oc1ccc(Cl)cc1OC1CNC1)c1cccc(F)c1 (racemic) [Example 115, (±)-3-[5-Chloro-2-[1-(3-fluoro-phenyl)-ethoxy]-phenoxy]-azetidine] | 33 | 202 | –
5 | CC(Oc1ccc(Cl)cc1OC1CNC1)c1ccc(F)c(C(F)(F)F)c1 (racemic) [Example 117, (±)-3-[5-Chloro-2-[1-(4-fluoro-3-trifluoromethyl-phenyl)-ethoxy]-phenoxy]-azetidine] | 41 | 71 | –
6 | CC(Oc1ccc(Cl)cc1OC1CNC1)c1ccccc1F (racemic) [Example 121, (±)-3-[5-Chloro-2-[1-(2-fluoro-phenyl)-ethoxy]-phenoxy]-azetidine] | 33 | 164 | –
7 | CC(Oc1ccc(Cl)cc1OC1CNC1)c1ccc(Cl)cc1 (racemic) [Example 123, (±)-3-[5-Chloro-2-[1-(4-chloro-phenyl)-ethoxy]-phenoxy]-azetidine] | 42 | 25 | –
8 | CC(Oc1ccc(Cl)cc1OC1CNC1)c1ccc(F)cc1 (racemic) [Example 124, (±)-3-[5-Chloro-2-[1-(4-fluoro-phenyl)-ethoxy]-phenoxy]-azetidine] | 43 | 20 | –
9 | CC(Oc1ccc(Cl)cc1OC1CCNCC1)c1cccc(Cl)c1 (racemic) [Example 136, (±)-4-[5-Chloro-2-[1-(3-chloro-phenyl)-ethoxy]-phenoxy]-piperidine] | 29 | 98 | –
10 | CC(Oc1ccc(Cl)cc1OC1CNC1)c1ccccc1 (racemic) [Example 145, (±)-3-[5-Chloro-2-(1-phenyl-ethoxy)-phenoxy]-azetidine] | 40 | 773 | –
11 | Cc1ccc2c(c1)CCC2Oc1ccc(Br)cc1OC1CNC1 (racemic) [Example 155, (±)-3-[5-Bromo-2-(5-methyl-indan-1-yloxy)-phenoxy]-azetidine] | 19 | 45 | –
12 | C[C@@H]1[C@@H](Oc2ccc(Cl)cc2OC2CNC2)CN1Cc1ccccc1 (racemic) [Example 223, (±)-3-[5-Chloro-2-(trans-1-benzyl-2-methyl-azetidin-3-ol)-phenoxy]-azetidine] | – | 9000 | 145
13 | Clc1cccc(COc2cc(Br)ccc2OC2CNC2)c1 [Example 22, 3-[4-Bromo-2-(3-chloro-benzyloxy)-phenoxy]-azetidine] | 125 | 28 | –
14 | CSc1cccc(COc2ccc(Cl)cc2OC2CNC2)c1 [Example 26, 3-[5-Chloro-2-(3-methylsulfanyl-benzyloxy)-phenoxy]-azetidine] | 25 | 13 | –
15 | CS(=O)(=O)c1cccc(COc2ccc(Cl)cc2OC2CNC2)c1 [Example 27, 3-[5-Chloro-2-(3-methanesulfonyl-benzyloxy)-phenoxy]-azetidine] | 229 | 1680 | –
16 | Clc1ccc(OCc2csc(-c3cccs3)n2)c(OC2CNC2)c1 [Example 28, 4-[2-(Azetidin-3-yloxy)-4-chloro-phenoxymethyl]-2-thiophen-2-yl-thiazole] | 49 | 683 | –
17 | Cc1nc(-c2cccc(COc3ccc(Cl)cc3OC3CNC3)c2)no1 [Example 31, 3-[3-[2-(Azetidin-3-yloxy)-4-chloro-phenoxymethyl]-phenyl]-5-methyl-[1,2,4]oxadiazole hydrochloride] | 100 | 90 | –
18 | FC(F)(F)c1ccccc1COc1ccc(Cl)cc1OC1CNC1 [Example 32, 3-[5-Chloro-2-(2-trifluoromethyl-benzyloxy)-phenoxy]-azetidine] | 53 | 29 | –
19 | FC(F)(F)Oc1ccc(COc2ccc(Cl)cc2OC2CNC2)cc1 [Example 42, 3-[5-Chloro-2-(4-trifluoromethoxy-benzyloxy)-phenoxy]-azetidine] | 35 | 578 | –
20 | FC(F)(F)c1ccc(COc2ccc(Cl)cc2OC2CNC2)cc1 [Example 43, 3-[5-Chloro-2-(4-trifluoromethyl-benzyloxy)-phenoxy]-azetidine] | 15 | 86 | –
21 | FC(F)(F)c1ccc(COc2ccc(Cl)cc2OC2CNC2)c(C(F)(F)F)c1 [Example 45, 3-[2-(2,4-Bis-trifluoromethyl-benzyloxy)-5-chloro-phenoxy]-azetidine] | 3160 | 197 | –

Now from value to compound:

Row | Ki [1, 3] [nM] | Ki [2] [nM] | Ki ([1]; rat 5-HT7, HEK-293 membranes) [nM] | SMILES
22 | – | 789 | 493 | C[C@@H]1[C@H](Oc2cc(Br)ccc2OCc2cccc(F)c2)CN1Cc1ccccc1 (relative stereo) [Example 220, cis-1-Benzyl-3-[5-bromo-2-(3-fluoro-benzyloxy)-phenoxy]-2-methyl-azetidine]
23 | – | 5000 | 147 | C[C@H]1[C@H](Oc2cc(Br)ccc2OCc2cccc(F)c2)CN1Cc1ccccc1 (relative stereo) [Example 221, trans-1-Benzyl-3-[5-bromo-2-(3-fluoro-benzyloxy)-phenoxy]-2-methyl-azetidine]
24 | 11 | 21 | – | Fc1ccc(COc2ccc(Cl)cc2OC2CNC2)cc1C(F)(F)F [Example 47, 3-[5-Chloro-2-(4-fluoro-3-trifluoromethyl-benzyloxy)-phenoxy]-azetidine]
25 | 387 | 86 | – | Clc1ccc(OCc2ccccn2)c(OC2CNC2)c1 [Example 51, 2-[2-(Azetidin-3-yloxy)-4-chloro-phenoxymethyl]-pyridine]
26 | 110 | 89 | – | Clc1ccc(OCc2cccnc2)c(OC2CNC2)c1 [Example 52, 3-[2-(Azetidin-3-yloxy)-4-chloro-phenoxymethyl]-pyridine]
27 | 260 | 464 | – | Clc1ccc(OCc2ccncc2)c(OC2CNC2)c1 [Example 53, 4-[2-(Azetidin-3-yloxy)-4-chloro-phenoxymethyl]-pyridine]
28 | 17 | 43 | – | FC(F)(F)c1ccc(COc2ccc(Br)cc2OC2CCNCC2)o1 [Example 64, 4-[5-Bromo-2-(5-trifluoromethyl-furan-2-ylmethoxy)-phenoxy]-piperidine]
29 | 153 | 5000 | – | CN1CC(Oc2cc(Cl)ccc2OCc2cc(CO)c(C(F)(F)F)o2)C1 [Example 77]
30 | – | – | 150 | O=C(c1ccc(Cl)cc1)c1ccc(Cl)cc1OC1CNC1 [Example 297, [2-(Azetidin-3-yloxy)-4-chloro-phenyl]-(4-chloro-phenyl)-methanone]
31 | – | – | 102 | O=C(c1cccc(Cl)c1)c1ccc(Cl)cc1OC1CNC1 [Example 298, [2-(Azetidin-3-yloxy)-4-chloro-phenyl]-(3-chloro-phenyl)-methanone]
